What was measured:
[1] = system: G-292-Clone-A141B1 (Osteosarcoma); assay: Bliss excess, mean over the matrix (fraction); higher = more synergy
How it was run: (§1)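 After 24 hours at 37°C and 5% CO2 in 1536-well plates, cells in DMEM/F12 or RPMI plus 10% FBS received two-drug dose matrices for 72 hours. Viability came from CellTiter-Glo 2.0 luminescence and was scaled as inhibition, anchored at 0 by vehicle wells and at 1 by blank wells. Combination Emax is taken as the second-highest inhibition in the matrix, and Bliss excess as the observed combination effect less EA + EB − EA·EB, with EA and EB the single-agent effects.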

[2] = system: NCI-H211 (Small Cell Lung Carcinoma); assay: as above
How it was run: as §1

[3] = system: U-266 (Plasma Cell Myeloma); assay: as above
How it was run: as §1

[4] = system: SW1990 (Pancreatic Carcinoma); assay: as above
How it was run: as §1

[5] = system: TE-5 (Esophageal Squamous Cell Carcinoma); assay: as above
How it was run: as §1

[6] = system: NALM-6 (B-Lymphoblastic Leukemia); assay: as above
How it was run: as §1

[7] = system: DB (B-Cell Non-Hodgkin's Lymphoma); assay: as above
How it was run: as §1

[8] = system: KARPAS-620 (Plasma Cell Myeloma); assay: as above
How it was run: as §1

[9] = system: NCI-H1299 (Non-Small Cell Lung Carcinoma); assay: as above
How it was run: as §1

[10] = system: KARPAS-1106P (B-Cell Non-Hodgkin's Lymphoma); assay: as above
How it was run: as §1

[11] = system: MFH-ino (Other Solid Carcinomas); assay: as above
How it was run: as §1

[12] = system: MDA-MB-231 (Breast Carcinoma); assay: as above
How it was run: as §1

[13] = system: MDA-MB-157 (Breast Carcinoma); assay: as above
How it was run: as §1

ES7 (Ewing's Sarcoma) = assay: as above
How it was run: as §1

[14] = system: KM-H2 (Hodgkin's Lymphoma); assay: combination Emax (second highest fraction inhibited in the dose matrix, 72 h); higher = more inhibition; extreme values may be limits of the assay
How it was run: as §1

[15] = system: SUIT-2 (Pancreatic Carcinoma); assay: as above
How it was run: as §1

RH-1 (Ewing's Sarcoma) = assay: as above
How it was run: as §1

[16] = system: SW780 (Bladder Carcinoma); assay: as above
How it was run: as §1

[17] = system: SW756 (Cervical Carcinoma); assay: as above
How it was run: as §1

[18] = system: TGBC24TKB (Biliary Tract Carcinoma); assay: as above
How it was run: as §1
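Throughout, for Bliss excess, mean over the matrix: after 72 h of two-drug dosing.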

Structure (SMILES)	Bliss excess [1]	Bliss excess [2]	Bliss excess [3]	Bliss excess [4]	Bliss excess [5]	Bliss excess [6]	Bliss excess [7]	Bliss excess [8]	Bliss excess [9]	Bliss excess [10]	Bliss excess [11]	Bliss excess [12]	Bliss excess [13]	Bliss excess (ES7 (Ewing's Sarcoma))	combination Emax [14]	combination Emax [15]	combination Emax (RH-1 (Ewing's Sarcoma))	combination Emax [16]	combination Emax [17]	combination Emax [18]
C[C@@H](Oc1cc(-c2cnn(C3CCNCC3)c2)cnc1N)c1c(Cl)ccc(F)c1Cl [Crizotinib] + Cn1cnc2c(F)c(Nc3ccc(Br)cc3Cl)c(C(=O)NOCCO)cc21 [Selumetinib] (first compound max 10 µM, 7x7, partner max 10 µM)	-0.0223	-0.0327	-0.021	-0.0626	-0.0366	-0.0149	-0.0472	0.0729	0.0598	0.0052	-0.026	0.0323	-0.0125	-0.0134	–	–	–	–	–	–
CS(=O)(=O)CCNCc1ccc(-c2ccc3ncnc(Nc4ccc(OCc5cccc(F)c5)c(Cl)c4)c3c2)o1 [Lapatinib] + Cn1cnc2c(F)c(Nc3ccc(Br)cc3Cl)c(C(=O)NOCCO)cc21 [Selumetinib] (first compound max 10 µM, 7x7, partner max 10 µM)	-0.0566	0.0084	0.0347	0.0373	-0.0241	0.021	0.0388	0.0746	0.0085	0.0436	-0.0468	-0.0236	-0.0598	-0.0355	–	–	–	–	–	–
CS(=O)(=O)CCNCc1ccc(-c2ccc3ncnc(Nc4ccc(OCc5cccc(F)c5)c(Cl)c4)c3c2)o1 [Lapatinib] + NC1(c2ccc(-c3nc4ccn5c(=O)[nH]nc5c4cc3-c3ccccc3)cc2)CCC1 [MK-2206] (first compound max 10 µM, 7x7, partner max 10 µM)	-0.0004	0.058	-0.016	-0.003	0.0735	-0.0044	-0.0017	0.032	0.0027	-0.0022	-0.102	0.0364	-0.0057	0.036	0.939	0.361	0.936	0.737	0.175	0.957
O=C(c1cc(Cc2n[nH]c(=O)c3ccccc23)ccc1F)N1CCN(C(=O)C2CC2)CC1 [Olaparib] + CC1(C)CCC(CN2CCN(c3ccc(C(=O)NS(=O)(=O)c4ccc(NCC5CCOCC5)c([N+](=O)[O-])c4)c(Oc4cnc5[nH]ccc5c4)c3)CC2)=C(c2ccc(Cl)cc2)C1 [Venetoclax] (first compound max 10 µM, 7x7, partner max 1 µM)	-0.0566	0.0865	0.0388	-0.0509	-0.0458	0.104	0.0522	0.003	-0.0527	-0.0169	-0.0622	0.0001	-0.0406	0.0282	–	–	–	–	–	–
O=C(c1cc(Cc2n[nH]c(=O)c3ccccc23)ccc1F)N1CCN(C(=O)C2CC2)CC1 [Olaparib] + CN(CC[C@H](CSC1=CC=CC=C1)NC2=C(C=C(C=C2)S(=O)(=O)NC(=O)C3=CC=C(C=C3)N4CCC(CC4)[C@H](C5=CC=CC=C5C6=CC=C(C=C6)Cl)O)S(=O)(=O)C(F)(F)F)CCO [AZD4320] (first compound max 10 µM, 7x7, partner max 1 µM)	-0.0275	0.0233	-0.0187	-0.0818	-0.0436	0.0211	-0.0863	0.0017	-0.0463	-0.035	-0.0594	-0.071	-0.0094	0.0156	–	–	–	–	–	–
O=C(c1cc(Cc2n[nH]c(=O)c3ccccc23)ccc1F)N1CCN(C(=O)C2CC2)CC1 [Olaparib] + COc1nnc2ccc(N3CCC(c4ccc(OCCN5CCN(C)C(=O)[C@H]5C)cc4)CC3)nn12 [AZD5153] (first compound max 10 µM, 7x7, partner max 1 µM)	-0.0523	-0.0168	-0.0332	-0.0669	-0.052	-0.0547	0.0255	-0.0365	-0.0826	-0.0162	-0.07	-0.0586	-0.0507	0.0166	–	–	–	–	–	–
O=C(c1cc(Cc2n[nH]c(=O)c3ccccc23)ccc1F)N1CCN(C(=O)C2CC2)CC1 [Olaparib] + Cc1c2c(nn1C)CSCc1cc(n(C)n1)CSc1cc(c3ccccc3c1)OCCCc1c(C(=O)O)n(C)c3c-2c(Cl)ccc13 [AZD5991] (first compound max 10 µM, 7x7, partner max 1 µM)	-0.0462	0.024	-0.0244	-0.0296	-0.0427	-0.039	0.0141	0.0121	-0.0455	0.0403	-0.069	-0.0354	-0.0291	0.022	–	–	–	–	–	–
N#Cc1cnc(Nc2cc(NC[C@H]3CNCCO3)c(C(F)(F)F)cn2)cn1 [SRA737] + C=CCn1c(=O)c2cnc(Nc3ccc(N4CCN(C)CC4)cc3)nc2n1-c1cccc(C(C)(C)O)n1 [AZD1775] (first compound max 10 µM, partner max 1 µM)	-0.009	0.169	0.0474	-0.0149	0.0481	0.11	0.0626	0.133	0.0448	0.0143	-0.013	0.0607	0.119	0.102	–	–	–	–	–	–
N#Cc1cnc(Nc2cc(NC[C@H]3CNCCO3)c(C(F)(F)F)cn2)cn1 [SRA737] + CCc1c2c(nc3ccc(O)cc13)-c1cc3c(c(=O)n1C2)COC(=O)[C@]3(O)CC [SN-38] (first compound max 10 µM, 7x7, partner max 0.3 µM)	0.0099	-0.0649	0.0402	-0.0824	-0.0682	-0.0083	-0.0472	0.0655	0.0179	-0.0918	-0.0461	-0.0227	0.0125	-0.0138	–	–	–	–	–	–
N#Cc1cnc(Nc2cc(NC[C@H]3CNCCO3)c(C(F)(F)F)cn2)cn1 [SRA737] + Nc1ccn([C@@H]2O[C@H](CO)[C@@H](O)C2(F)F)c(=O)n1 [Gemcitabine] (first compound max 10 µM, 7x7, partner max 0.3 µM)	0.0405	0.0372	-0.0101	-0.0384	-0.0151	-0.0673	0.0174	0.151	0.0831	0.0126	-0.0148	0.105	0.0499	0.0172	–	–	–	–	–	–
N#Cc1cnc(Nc2cc(NC[C@H]3CNCCO3)c(C(F)(F)F)cn2)cn1 [SRA737] + O=c1[nH]cc(F)c(=O)[nH]1 [5-Fluorouracil] (first compound max 10 µM, 7x7, partner max 20 µM)	-0.0458	0.0823	0.0562	-0.0577	0.0052	0.0117	-0.0088	0.0096	-0.0191	0.0407	0.0373	-0.0492	0.0781	0.0157	–	–	–	–	–	–
Cc1nc(-c2cn3c(n2)-c2ccc(-c4cnn(C(C)(C)C(N)=O)c4)cc2OCC3)n(C(C)C)n1 [Taselisib] + O=C(Nc1ccc2[nH]nc(-c3ccncc3)c2c1)[C@@H]1CCN(CC(=O)N2CCN(c3ccc(-c4ncccn4)cc3)CC2)C1 [SCH772984] (first compound max 10 µM, 7x7, partner max 5 µM)	-0.0258	0.126	0.0774	0.0724	0.113	0.017	0.0783	0.116	0.0654	0.0391	-0.0018	0.0595	0.0631	0.036	–	–	–	–	–	–
CC1(C)CCC(CN2CCN(c3ccc(C(=O)NS(=O)(=O)c4ccc(NCC5CCOCC5)c([N+](=O)[O-])c4)c(Oc4cnc5[nH]ccc5c4)c3)CC2)=C(c2ccc(Cl)cc2)C1 [Venetoclax] + CS(=O)(=O)CCNCc1ccc(-c2ccc3ncnc(Nc4ccc(OCc5cccc(F)c5)c(Cl)c4)c3c2)o1 [Lapatinib] (first compound max 1 µM, 7x7, partner max 10 µM)	-0.045	-0.0037	-0.0555	-0.0384	-0.0388	0.0563	0.0803	0.0569	-0.0402	-0.0183	-0.0699	-0.034	-0.0549	0.0086	–	–	–	–	–	–

— the supplement of paper PMC11061612
